Experimental data as given in patent EP4778921A1, “SALT FORM AND CRYSTAL FORM OF NITROGEN-CONTAINING HETEROCYCLIC DERIVATIVE INHIBITOR, AND PREPARATION METHOD THEREFOR AND USE THEREOF” (Shanghai Hansoh Biomedical Co., Ltd., priority 2023, dated 2025).
Structures can show the parent of a compound that is named as a salt.

What was measured:
[1] = tested on: Ba/F3 EGFR L858R/T790M/C797S; assay: Cell proliferation inhibition experiment (Cell Titer-Glo); assay type: cell-based; conditions: Mus musculus, 72 hours, read-out: Ba/F3 EGFR L858R_T790M_C797S IC50
Procedure: (§1) Experimental objective: The objective of this test example is to test the inhibitory activity of compounds on the proliferation of different EGFR C797S drug-resistant mutant cell lines Ba/F3 EGFR Del19/T790M/C797S, Ba/F3 EGFR L858R/T790M/C797S, and Ba/F3 EGFR Del19/C797S. Experimental instruments: Centrifuge (Eppendorf 5810R); Microplate reader (BioTek Synergy H1) Pipette (Eppendorf or Rainin); Carbon dioxide incubator (Thermo 311) Cell counter (Life Countess II) Experimental reagents and consumables: • Ba/F3 EGFR Del19/T790M/C797S cells were purchased from KYinno Biotechnology Co., Ltd.; • Ba/F3 EGFR Del19/C797S cells were purchased from CoBioer Biosciences Co., Ltd.; • Ba/F3 EGFR L858R/T790M/C797S cells were purchased from CoBioer Biosciences Co., Ltd.; • Cell Titer-Glo was purchased from Promega, with a catalogue number of G7573; • RPMI 1640 was purchased from Gibco, with a catalogue number of 22400089; • FBS was purchased from Gibco, with a catalogue number of 10091148; • cell culture plates were purchased from Corning, with a catalogue number of 3610. Experimental methods: The inhibitory activity of the compound on the proliferation of different EGFR C797S drug-resistant mutant cell lines was detected using the Cell Titer-Glo method. The different cell lines were cultured in RPMI 1640 complete culture medium containing 10% FBS under conditions of 37°C and 5% CO2, the cells were collected by centrifugation when growing to a certain density, and adjusted to appropriate cell density after counting, the cells were spread on a white 96-well plate at 90 µL/well, and cultured in a 37°C, 5% CO2 incubator overnight, prepared compound solutions at different concentrations were added at 10 µL/well, corresponding solvent controls were set, and all wells were cultured in a 37°C, 5% CO2 incubator for 72 hours, 50 µL of CellTiter-Glo solution was added to each well, shook and mixed evenly, and incubated in the dark for 10 minutes, and a BioTek Synergy H1 microplate reader was used for reading. Experimental data processing method: The luminescence signal value was used to calculate the inhibition rate. Graphpad Prism software was used to fit the concentration and inhibition rate to a nonlinear regression curve, so as to obtain the IC50 value, as shown in the Table below for details.

[2] = tested on: Ba/F3 EGFR Del19/T790M/C797S; assay: as above; assay type: cell-based; conditions: Mus musculus, 72 hours, read-out: Ba/F3 EGFR Del19_T790M_C797S IC50
Procedure: as §1

[3] = tested on: Ba/F3 EGFR Del19/C797S; assay: as above; assay type: cell-based; conditions: Mus musculus, 72 hours, read-out: Ba/F3 EGFR Dell9/C797S IC50
Procedure: as §1

[4] = Rat pharmacokinetic evaluation test; assay type: in vivo; conditions: male, po, SD rats, plasma, p.o. 5 mg/kg
Procedure: 1. Study objective: SD rats were used as test animals to study the pharmacokinetic behaviour of the compounds of the present invention in rats (plasma) after oral administration at a dose of 5 mg/kg. 2. Experimental scheme: 2.1 Experimental drugs: The example compounds of the present invention, made in house. 2.2 Experimental animals: 3 SD rats/group, male, from Shanghai Jiesijie Experimental Animal Co., Ltd., animal production license number (SCXK (Shanghai) 2013-0006 N0.311620400001794). 2.3 Preparation formulation: • Formulation of drug for oral administration: 20% solutol HS15 in 0.5% MC (methylcellulose) • 20 g of a Solutol HS15 solid and 0.5 g of a MC solid powder were weighed and dissolved in 80 mL of purified water, and the mixture was vortexed, mixed until uniform, and subjected to ultrasound treatment to obtain a clear solution of 20% solutol HS15 in 0.5% MC. The example compound was weighed into a 20 mL glass vial, the solution was added thereto and the mixture was subjected to ultrasound treatment for 10 minutes to obtain a clear solution at a concentration of 0.5 mg/mL. 2.4 Administration: 3 male SD rats were administered p.o. respectively after the rats were fasted overnight; and the p.o. dose was 5 mg/kg and the administration volume was 10 mL/kg. 2.5 Sample collection: Blood collection: Before and after administration to rats, 0.2 mL of blood was collected from the jugular vein at 0.25, 0.5, 1, 2, 4, 6, 8 and 24 h, and placed in an EDTA-K2 anticoagulation tube, which was centrifuged at 6000 rpm at 4°C for 6 min to separate plasma which was stored at -80°C; and the animals were fed 4 h after administration. 2.6 Sample treatment: • 1) Acetonitrile (160 µL) was added to plasma sample (40 µL) for precipitation, and the mixture was centrifuged at 3500 × g for 5-20 min. • 2) The treated supernatant solution was taken and subjected to LC/MS/MS to analyse the concentrations of the test compound. LC/MS/MS analysis instrument: AB Sciex API 4000 Qtrap. 2.7 Liquid phase analysis: • Liquid phase conditions: Shimadzu LC-20AD pump • Chromatographic column: Agilent ZORBAX XDB-C18 (50 × 2.1 mm, 3.5 µm), mobile phase: solution A: 0.1% formic acid in water, solution B: acetonitrile • Flow rate: 0.4 mL/min • Elution time: 0-4.0 min, with eluents as follows:
3. Experimental results and analysis: The main pharmacokinetic parameters were calculated using WinNonlin 6.1.

[5] = Solid stability experiment of crystal forms of salts (7 and 14 days); assay type: physicochemical
Procedure: • 3.1 Experimental objective: To investigate the physical and chemical stability for different crystal forms of salts under the conditions of a high temperature of 60°C (GW), a high humidity of RH = 92.5% (GS), and both a high temperature of 50°C and a high humidity of RH = 75% (JS) and provide a basis for the screening of the crystal forms of salts and the storage of the crystal forms of salts of the compound. • 3.2 Experimental scheme: Different crystal forms of salts (crystal form A of hydrochloride, crystal form A of sulphate, crystal form A of citrate, crystal form A of oxalate, crystal form A of maleate and crystal form A of salicylate) were accurately weighed, and the stability of the crystal forms was investigated for 7 and 14 days under the three conditions of 60°C (GW), 92.5% RH (room temperature, GS), and 50°C/75% RH (JS). […] Therefore, they can well meet the requirements of subsequent drug development. […] Therefore, they both satisfy the requirements for subsequent drug storage.

[6] = Hygroscopicity experiment (crystal forms of salts and crystal form A of free base); assay type: physicochemical; conditions: for crystal form transformation (XRPD pattern): after 1 cycle of moisture absorption and desorption, 0-95% relative humidity
Description: • 2.1 Experimental objective: The hygroscopicity of different crystal forms of salts of the compound was investigated under various relative humidity conditions to provide a basis for screening and storage of the crystal forms of salts of the compound. • 2.2 Experimental scheme: The crystal forms of salts of the compound were placed in saturated water vapor at different relative humidities to reach a dynamic equilibrium between the compound and the water vapor.
3.1 Experimental objective: The hygroscopicity of crystal form A of free base of the compound was investigated under various relative humidity conditions to provide a basis for screening and storage of the crystal forms of the compound.
3.2 Experimental scheme: The crystal form A of free base of the compound was placed in saturated water vapor at different relative humidities to reach a dynamic equilibrium between the compound and the water vapor. The percentage weight gain of the compound due to moisture absorption was calculated after the equilibrium.

[7] = Solubility experiments in different media, crystal forms of salts; assay type: physicochemical; design: thermodynamic solubility FaSSIF / thermodynamic solubility FaSSGF / thermodynamic solubility FeSSIF: unit not given here; conditions: about 2 mg suspended for 24 hours, 37°C, HPLC, external standard method; for thermodynamic solubility FaSSGF: FaSSGF (artificial simulated gastric fluid); for thermodynamic solubility FaSSIF: FaSSIF (fasted-state artificial simulated intestinal fluid); for thermodynamic solubility FeSSIF: FeSSIF (fed-state artificial simulated intestinal fluid)
Description: 4.1 Experimental objective: The solubility of the crystal form A of phosphate, crystal form A of hydrochloride, crystal form A of sulphate, crystal form A of citrate, crystal form A of oxalate, crystal form A of maleate and crystal form A of salicylate in media such as artificial simulated gastric fluid (FaSSGF), fasted-state artificial simulated intestinal fluid (FaSSIF), and fed-state artificial simulated intestinal fluid (FeSSIF) was compared to provide a basis for the evaluation of the potential of the crystal forms of salts being manufactured as a drug. […]

Row | IC50 [2] | IC50 [3] | weight gain after moisture absorption ([6]; RH 80%) | crystal form transformation (XRPD pattern) [6] | thermodynamic solubility FaSSGF [7] | thermodynamic solubility FaSSIF [7] | thermodynamic solubility FeSSIF [7] | SMILES | also measured
1 | 4.5 nM | 7.8 nM | – | – | – | – | – | Cc1nn(C)cc1-c1nccc(Nc2cc3c(C(C)C)c(F)cc(N4C[C@H](N(C)S(C)(=O)=O)[C@H]4C)c3cn2)n1 [Example 5, N-((2R,3S)-1-(3-((2-(1,3-dimethyl-1H-pyrazol-4-yl)pyrimidin-4-yl)amino)-6-fluoro-5-isopropylisoquinolin-8-yl)-2-methylazetidin-3-yl)-N-methylmethanesulphonamide] | AUC(0-t) [4]: 2000 ng·h/mL; Cmax [4]: 157 ng/mL; half-life [4]: 234 min
2 | – | – | 2.050% | no crystal form transformation occurred | 0.075 | 0.029 | >1.020 | CC(C)c1c(F)cc(N2C[C@H](N(C)S(C)(=O)=O)[C@H]2C)c2cnc(Nc3ccnc(-c4cn(C)nc4Cl)n3)cc12 [crystal form A of maleate, N-((2R,3S)-1-(3-((2-(3-chloro-1-methyl-1H-pyrazol-4-yl)pyrimidin-4-yl)amino)-6-fluoro-5-isopropylisoquinolin-8-yl)-2-methylazetidin-3-yl)-N-methylmethanesulphonamide] | stability (impurity increase) ([5]; high temperature and high humidity conditions, 7 and 14 days): relatively stable
3 | – | – | 4.616% | no crystal form transformation occurred | 0.096 | 0.034 | 1.114 | CC(C)c1c(F)cc(N2C[C@H](N(C)S(C)(=O)=O)[C@H]2C)c2cnc(Nc3ccnc(-c4cn(C)nc4Cl)n3)cc12 [crystal form A of sulphate, N-((2R,3S)-1-(3-((2-(3-chloro-1-methyl-1H-pyrazol-4-yl)pyrimidin-4-yl)amino)-6-fluoro-5-isopropylisoquinolin-8-yl)-2-methylazetidin-3-yl)-N-methylmethanesulphonamide] | stability (impurity increase) ([5]; placed for a period of time under various conditions): remain stable
4 | – | – | 0.573% | no crystal form transformation occurred | 0.053 | 0.159 | >0.870 | CC(C)c1c(F)cc(N2C[C@H](N(C)S(C)(=O)=O)[C@H]2C)c2cnc(Nc3ccnc(-c4cn(C)nc4Cl)n3)cc12 [crystal form A of citrate, N-((2R,3S)-1-(3-((2-(3-chloro-1-methyl-1H-pyrazol-4-yl)pyrimidin-4-yl)amino)-6-fluoro-5-isopropylisoquinolin-8-yl)-2-methylazetidin-3-yl)-N-methylmethanesulphonamide] | stability (impurity increase) ([5]; high temperature, high humidity, and both high temperature and high humidity conditions, 7 and 14 days): relatively stable; hygroscopicity ([6]; RH 80%, result in words): weak hygroscopicity

More lines, now with the values behind:

Row | SMILES | IC50 [2] | IC50 [3] | weight gain after moisture absorption ([6]; RH 80%) | crystal form transformation (XRPD pattern) [6] | thermodynamic solubility FaSSGF [7] | thermodynamic solubility FaSSIF [7] | thermodynamic solubility FeSSIF [7] | also measured
5 | CC(C)c1c(F)cc(N2C[C@H](CS(C)(=O)=O)[C@H]2C)c2cnc(Nc3ccnc(-c4cn(C)nc4Cl)n3)cc12 [Example 1, N-(2-(3-chloro-1-methyl-1H-pyrazol-4-yl)pyrimidin-4-yl)-6-fluoro-5-isopropyl-8-((2R,3S)-2-methyl-3-((methanesulphonyl)methyl)azetidin-1-yl)isoquinolin-3-amine] | 7.1 nM | 11 nM | – | – | – | – | – | IC50 [1]: 14 nM; AUC(0-t) [4]: 2100 ng·h/mL; Cmax [4]: 178 ng/mL; half-life [4]: 138 min
6 | Cc1nn(C)cc1-c1nccc(Nc2cc3c(C(C)C)c(F)cc(N4C[C@H](CS(C)(=O)=O)[C@H]4C)c3cn2)n1 [Example 4, N-(2-(1,3-dimethyl-1H-pyrazol-4-yl)pyrimidin-4-yl)-6-fluoro-5-isopropyl-8-((2R,3S)-2-methyl-3-((methanesulphonyl)methyl)azetidin-1-yl)isoquinolin-3-amine] | 6.8 nM | 18 nM | – | – | – | – | – | –
7 | CC(C)c1c(F)cc(N2C[C@H](NS(C)(=O)=O)[C@H]2C)c2cnc(Nc3ccnc(-c4cn(C)nc4Cl)n3)cc12 [Example 14, N-((2R,3S)-1-(3-((2-(3-chloro-1-methyl-1H-pyrazol-4-yl)pyrimidin-4-yl)amino)-6-fluoro-5-isopropylisoquinolin-8-yl)-2-methylazetidin-3-yl)methanesulphonamide] | – | 2.6 nM | – | – | – | – | – | IC50 [1]: 8.8 nM
